Tests used:
rat P2X7-GFP = biological target: T1, rat P2X7-GFP (Rattus norvegicus, UniProt Q64663); assay: Whole-cell patch clamp electrophysiology; assay type: cell-based
T1 construct: expressed in transfected cells; host or cells: HEK-293 cells stably expressing rat P2X7-GFP (patch clamp)
T1 sequence (Q64663 1-595): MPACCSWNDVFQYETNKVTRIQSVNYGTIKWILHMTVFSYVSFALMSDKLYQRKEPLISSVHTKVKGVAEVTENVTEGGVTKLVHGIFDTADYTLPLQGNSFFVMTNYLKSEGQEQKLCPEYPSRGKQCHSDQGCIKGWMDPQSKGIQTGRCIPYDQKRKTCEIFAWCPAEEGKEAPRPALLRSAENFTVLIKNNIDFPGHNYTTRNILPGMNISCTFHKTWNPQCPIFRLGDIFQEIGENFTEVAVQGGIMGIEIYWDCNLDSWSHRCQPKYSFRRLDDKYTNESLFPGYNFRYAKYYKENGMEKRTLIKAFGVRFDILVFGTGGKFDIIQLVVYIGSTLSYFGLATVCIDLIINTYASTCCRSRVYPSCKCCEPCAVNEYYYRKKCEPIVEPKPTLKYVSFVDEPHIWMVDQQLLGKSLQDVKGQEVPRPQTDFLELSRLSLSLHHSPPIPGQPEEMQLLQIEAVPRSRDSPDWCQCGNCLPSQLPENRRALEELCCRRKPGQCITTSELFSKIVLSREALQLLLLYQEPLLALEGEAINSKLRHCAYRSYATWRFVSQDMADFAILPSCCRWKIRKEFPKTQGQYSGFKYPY
Experimental: Whole-cell patch-clamp traces were recorded at room temperature using patch pipettes pulled from borosilicate glass (World Precision Instruments, Sarasota, FL, United States). Pipettes were filled with internal solution (IS) containing (in mM): 145 NaCl, 10 EGTA and 10 HEPES, with the pH adjusted to 7.3 with NaOH and had resistances of 3–5 MΩ. Cells were constantly perfused in a bath with ECS-LD. Currents were recorded at a holding membrane potential of −60 mV using an Axon Instruments Axopatch Multiclamp 700A amplifier and Digidata 1322A A/D interface (Molecular Devices, Sunnyvale, CA, United States). […] ATP applications were made at 90-s intervals. Solutions were applied to patch-clamped cells with the help of a rapid perfusion system (RSC-160, Biologic, Claix, France), allowing solution exchange times in the range […].
In order to confirm GP-25 as a competitive (orthosteric) antagonist, BzATP concentration-response curves (ranging between 300 μM and .03 µM) were constructed for rat P2X7-GFP in the YoPro-1 uptake assay in the presence of increasing concentrations of GP-25 (Figure 3A).

human P2X4 = biological target: T2, human P2X4 (Homo sapiens, UniProt Q99571); assay: Fluo-4 ATP-induced calcium influx assay; assay type: cell-based; conditions: 10 µM compound; 1.2 µM ATP; 1321N1 cells
T2 construct: expressed in transfected cells
T2 sequence (Q99571 1-388): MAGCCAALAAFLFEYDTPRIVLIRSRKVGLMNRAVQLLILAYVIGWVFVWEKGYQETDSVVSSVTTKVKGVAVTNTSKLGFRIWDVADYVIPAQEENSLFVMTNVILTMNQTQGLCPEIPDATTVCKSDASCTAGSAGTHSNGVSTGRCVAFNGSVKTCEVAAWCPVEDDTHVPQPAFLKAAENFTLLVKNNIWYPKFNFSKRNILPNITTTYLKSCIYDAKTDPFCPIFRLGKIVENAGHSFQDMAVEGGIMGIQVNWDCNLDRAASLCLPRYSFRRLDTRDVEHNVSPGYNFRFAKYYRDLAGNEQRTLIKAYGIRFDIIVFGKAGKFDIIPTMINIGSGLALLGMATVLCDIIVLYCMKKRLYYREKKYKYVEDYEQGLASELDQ
Experimental: 1321N1 astrocytoma cells and HEK-293 cells were cultured (at 37°C, 5% CO2) in Dulbecco’s modified Eagle’s medium (DMEM/F-12 with Glutamax) supplemented with 10% foetal bovine serum (FBS) and 200 unit/ml of penicillin and streptomycin antibiotics (Fisher Scientific). […]
Cells were plated the day before assay into poly-lysine-coated 96-well plates at 40–65,000 cells/ml. […] A Fluoroskan Ascent FL plate reader (Fisher Scientific) equipped with a solution dispenser and an appropriate filter pair (excitation: 485 nm, emission: 538 nm) was used to record 5 s baseline followed by P2X4-mediated calcium influx measurements for 20–25 s after ATP stimulation (20 μL injection of solutions dissolved in modified Ringer’s buffer).
The antagonist activity of the 17 compounds (applied at 10 µM) was assayed initially on 1321N1 astrocytoma cells stably expressing human P2X4 receptors by measuring the ATP-induced (applied at 1.2 µM) increase in Fluo-4 fluorescence due to calcium influx via P2X4, using 2 µM BX430 as a positive control (Figure 1A). […] The ATP-induced rate of uptake of YoPro-1 dye was measured upon application of at 300 µM ATP, using .1 µM A740003 as a positive control (Figure 1B).

COC(=O)C1=C(C)NC2=C(C(=O)c3ccccc32)C1c1cc(Br)ccc1OCC(=O)O (stereo not drawn) [Compound 9, (4-bromo-2-(3-(methoxycarbonyl)-2-methyl-5-oxo-4,5-dihydro-1H-indeno(1,2-b)pyridine-4-yl)phenoxy)acetic acid]
reduction in P2X7 activity at 25 µM (rat P2X7-GFP; 25 µM compound, patch clamp): statistically significant reduction
inhibition of ATP-evoked currents (rat P2X7-GFP; GP-25 pre-applied for 2 min, 300 µM ATP, HEK-293 cells): concentration-dependent inhibition
antagonist activity at human P2X4 (human P2X4): no activity
